A word on the IC50: it is the midpoint of a concentration-inhibition curve.

Common to all, as to type: cell-based
One assay concerns the target T1, GDF-11 (Homo sapiens, UniProt O95390).
T1 construct: purchased R&D systems 1958-GD-G8/CF
T1 sequence (O95390 299-407): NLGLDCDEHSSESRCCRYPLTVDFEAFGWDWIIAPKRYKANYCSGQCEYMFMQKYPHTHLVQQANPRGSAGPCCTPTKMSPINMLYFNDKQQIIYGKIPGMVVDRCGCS
Description: Reporter gene assay for myostatin signaling in HepG2 cell line, Evaluation Procedure (1), GDF-11 inhibition. The conditions noted are these: Method A: GDF-11 10 ng/mL; read-out: IC50 (Luciferase) GDF-11 HepG2. As to the method: (§1) In this Example, the in vitro myostatin inhibitory effects of the peptides synthesized in Examples 1 and 2 were evaluated using a reporter gene assay for myostatin signaling in HepG2 cell line.
(§2) HepG2 cell line (HB-8065, ATCC) cultured in EMEM (055-08975, WAKO Industries) containing 10% FBS (10270106, Gibco) and 50 µg/mL gentamicin (11980-14, Nacalai Tesque) was seeded in 96-well plates (167008, Thermo) at 2.0 × 10^4 cells/well and incubated in a CO2 incubator (37°C, 5% CO2) for 24 hours. The pGL3(CAGA)12-luc plasmid, namely a pGL3 vector (E1751, Promega) having a luciferase gene inserted downstream of a promoter sequence with 12 CAGA repeats attached, was added to the wells along with a transfection reagent (X-treamGENE9 DNA Transfection Reagent, 6365809001, Roche) at a concentration of 0.04 µg/well. The cell line was cultured in a CO2 incubator (37°C, 5% CO2) for 24 hours for transfection. The medium was discarded and replaced with EMEM containing 50 µL/well of 0.1% bovine serum albumin (A7030, Sigma) and 50 µg/mL gentamicin, and incubated in a CO2 incubator (37°C, 5% CO2) for 2 hours.
(§3) Myostatin (788-G8/C, R&D systems) or GDF-11 (1958-GD-G8/CF, R&D systems) was added so that the final concentrations were those listed in Table 5.
(§4) A 4-fold dilution series of various peptides synthesized in Examples 1 and 2 was added to achieve 0.006-100 nmol/L (myostatin inhibition) and 0.12-2000 nmol/L (GDF-11 inhibition). At this time, blank wells, in which neither myostatin, GDF-11, nor each peptide was added, were also prepared and incubated in a CO2 incubator (37°C, 5% CO2) for 20 to 24 hours.
(§5) The medium containing the cells was removed, and a mixture containing PBS (14190144, Thermo) and a chromogenic substrate One-Glo Luciferase Assay System (E6120, Promega) at a ratio of 1:1 was added to each well at 100 µL/well. This was stirred with a plate shaker for 5 min and transferred to a 384-well plate (3570, Corning) at a volume of 20 µL/well.
(§6) The plate was centrifuged at 1,000 × g for 1 min and the luminescence signal (700 nm luminescence) was measured using a plate reader (Envision 2104, PerkinElmer). Based on the measured values, IC50 values of the peptides were calculated using software (Prism 9, GraphPad). […]
(§7) In this Example, the in vitro myostatin inhibitory effects of the peptides synthesized in Examples 10 and 11 were evaluated according to the Evaluation Procedure (1) in Example 3.
On the technique in general: Reporter assays use an easily measured gene product as a stand-in for the process of interest.

The target of assay [1] is T2, Myostatin (Homo sapiens, UniProt O14793).
T2 construct: active myostatin (also called mature myostatin) is a homodimer consisting of two C-terminal growth factor domains; purchased R&D systems 788-G8/CF
T2 sequence (O14793 267-375): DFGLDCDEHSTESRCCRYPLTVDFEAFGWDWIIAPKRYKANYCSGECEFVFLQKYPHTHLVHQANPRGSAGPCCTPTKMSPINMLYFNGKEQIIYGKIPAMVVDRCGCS
Description: Reporter gene assay for myostatin signaling in HepG2 cell line, Evaluation Procedure (1), myostatin inhibition. The settings on record: Method A: Myostatin 10 ng/mL; read-out: IC50 (Luciferase) Myostatin HepG2. On the procedure: as §1, §2, §3, §4, §5, §6, §7

For assay [2], the system named is Myostatin. The assay is described as above. The conditions noted are these: for Selectivity: GDF-11 IC50 versus Myostatin IC50. As to the method: as §1, §2, §3, §4, §5, §6, §7

Starred links: 1 amine or outer side, 2 acyl side, 3 side chain; linkers in the order of their positions; H or OH if unused. Positions of bridges follow the written chain, without caps; N, C: chain ends. Non-standard residues stand in square brackets, D forms with d. Residues, ends and D or L forms follow the SMILES beside them. No end group written: not given here. *: point of attachment. Phe(3-OCH2COOH) = N[C@@H](Cc1cccc(OCC(=O)O)c1)C(=O)O; NMePhe(4-CH2NH2) = CN[C@@H](Cc1ccc(CN)cc1)C(=O)O; Phe(3-CONH2) = NC(=O)c1cccc(C[C@H](N)C(=O)O)c1; Phe(4-CONH2) = NC(=O)c1ccc(C[C@H](N)C(=O)O)cc1; Phe(4-COOH) = N[C@@H](Cc1ccc(C(=O)O)cc1)C(=O)O; Trp(7-aza) = N[C@@H](Cc1c[nH]c2ncccc12)C(=O)O; Gly(N(CH2)3COOH) = O=C(O)CCCNCC(=O)O; X1 = CCCCCCC[C@H](N[*:1])C(=O)[*:2]; NMeF = CN[C@@H](Cc1ccccc1)C(=O)O; 3Pal = N[C@@H](Cc1cccnc1)C(=O)O; 4Pal = N[C@@H](Cc1ccncc1)C(=O)O; Carboxymethyl = O=C(O)C*; NMeA = CN[C@@H](C)C(=O)O; Sar = CNCC(=O)O

`CC[C@H](C)[C@@H]1NC(=O)[C@H](Cc2ccccc2)N(C)C(=O)[C@H](Cc2ccc(O)cc2)NC(=O)[C@H](Cc2c[nH]c3ncccc23)NC(=O)[C@H](C)NC(=O)CN(CCCC(=O)O)C(=O)CSC[C@H](C(=O)O)NC(=O)[C@H](Cc2ccccc2)N(C)C(=O)[C@H](C)N(C)C(=O)[C@H](CC(C)C)NC(=O)[C@H](Cc2ccccc2)N(C)C(=O)[C@H](CCCNC(=N)N)NC(=O)[C@H](Cc2ccc(C(=O)O)cc2)NC(=O)[C@H](Cc2ccccc2)NC(=O)CN(C)C1=O` [Myostatin_99_Variant_20-OH] ({CH2CO}-[Gly(N(CH2)3COOH)]A[Trp(7-aza)]Y[NMeF]I[Sar]F[Phe(4-COOH)]R[NMeF]L[NMeA][NMeF][dC]-OH; thioether N-15): the 50% inhibitory concentration (IC50) was 2010 nM at GDF-11 and 44.8 nM at Myostatin [1]. The Selectivity in the assay with Myostatin [2] (Method A) turned out to be 45.

Take `CC[C@H](C)[C@@H]1NC(=O)[C@H](Cc2ccccc2)N(C)C(=O)[C@H](Cc2ccc(O)cc2)NC(=O)[C@H](Cc2c[nH]c3ncccc23)NC(=O)[C@H](C)NC(=O)CN(CCCC(=O)O)C(=O)CSC[C@H](C(=O)O)NC(=O)[C@H](Cc2ccccc2)N(C)C(=O)[C@H](C)N(C)C(=O)[C@H](CC(C)C)NC(=O)[C@H](Cc2ccccc2)N(C)C(=O)[C@H](CCCNC(=N)N)NC(=O)[C@H](Cc2ccc(C(=O)O)cc2)NC(=O)[C@H](Cc2ccncc2)NC(=O)CN(C)C1=O` [Myostatin_99_Variant_21-OH] ({CH2CO}-[Gly(N(CH2)3COOH)]A[Trp(7-aza)]Y[NMeF]I[Sar][4Pal][Phe(4-COOH)]R[NMeF]L[NMeA][NMeF][dC]-OH; thioether N-15): the figures for the IC50 on GDF-11 and on Myostatin [1] were 4320 nM and 106 nM, respectively. For the same compound, the Selectivity in the assay on Myostatin [2] (Method A) worked out at 41.

`CC[C@H](C)[C@@H]1NC(=O)[C@H](Cc2ccccc2)N(C)C(=O)[C@H](Cc2ccc(O)cc2)NC(=O)[C@H](Cc2c[nH]c3ncccc23)NC(=O)[C@H](C)NC(=O)CN(CCCC(=O)O)C(=O)CSC[C@H](C(=O)NCC(=O)N[C@H](CCC(=O)O)C(=O)NCC(=O)N[C@H](CCCCN)C(=O)O)NC(=O)[C@H](Cc2ccccc2)N(C)C(=O)[C@H](C)N(C)C(=O)[C@H](CC(C)C)NC(=O)[C@H](Cc2ccccc2)N(C)C(=O)[C@H](CCCNC(=N)N)NC(=O)[C@H](Cc2ccc(C(=O)O)cc2)NC(=O)[C@H](Cc2ccncc2)NC(=O)CN(C)C1=O` [Myostatin_99_v31] ({CH2CO}-[Gly(N(CH2)3COOH)]A[Trp(7-aza)]Y[NMeF]I[Sar][4Pal][Phe(4-COOH)]R[NMeF]L[NMeA][NMeF][dC]G[dE]G[dK]-OH; thioether N-15): the results for the IC50 at GDF-11 and on Myostatin [1] were 1340 nM and 54.7 nM, respectively. The compound further came in with a Selectivity in the assay on Myostatin [2] (Method A) of 25.

In the case of `CC[C@H](C)[C@@H]1NC(=O)[C@H](Cc2ccccc2)N(C)C(=O)[C@H](Cc2ccc(O)cc2)NC(=O)[C@H](Cc2c[nH]c3ncccc23)NC(=O)[C@H](C)NC(=O)CN(CCCC(=O)O)C(=O)CSC[C@H](C(=O)O)NC(=O)[C@H](Cc2ccccc2)N(C)C(=O)[C@H](C)N(C)C(=O)[C@H](CC(C)C)NC(=O)[C@H](Cc2ccccc2)N(C)C(=O)[C@H](CCCNC(=N)N)NC(=O)[C@H](Cc2cccnc2)NC(=O)[C@H](Cc2ccccc2)NC(=O)CN(C)C1=O` [Myostatin_99_v41] ({CH2CO}-[Gly(N(CH2)3COOH)]A[Trp(7-aza)]Y[NMeF]I[Sar]F[3Pal]R[NMeF]L[NMeA][NMeF][dC]-OH; thioether N-15), the IC50 was 1630 nM on GDF-11 and 63.7 nM on Myostatin [1]. The compound further returned a Selectivity with Myostatin [2] (Method A) of 26.

For `CC[C@H](C)[C@@H]1NC(=O)[C@H](Cc2ccccc2)N(C)C(=O)[C@H](Cc2ccc(O)cc2)NC(=O)[C@H](Cc2c[nH]c3ncccc23)NC(=O)[C@H](C)NC(=O)CN(CCCC(=O)O)C(=O)CSC[C@H](C(=O)O)NC(=O)[C@H](Cc2ccccc2)N(C)C(=O)[C@H](C)N(C)C(=O)[C@H](CC(C)C)NC(=O)[C@H](Cc2ccccc2)N(C)C(=O)[C@H](CCCNC(=N)N)NC(=O)[C@H](Cc2ccc(OCC(=O)O)cc2)NC(=O)[C@H](Cc2ccccc2)NC(=O)CN(C)C1=O` [Myostatin_99_v43] ({CH2CO}-[Gly(N(CH2)3COOH)]A[Trp(7-aza)]Y[NMeF]I[Sar]FY(Carboxymethyl)R[NMeF]L[NMeA][NMeF][dC]-OH; thioether N-15), the IC50 stood at 1990 nM on GDF-11 and 33.2 nM at Myostatin [1]. Further, in the assay on Myostatin [2] (Method A), the Selectivity is recorded as 60.

In the case of `CC[C@H](C)[C@@H]1NC(=O)[C@H](Cc2ccccc2)N(C)C(=O)[C@H](Cc2ccc(O)cc2)NC(=O)[C@H](Cc2c[nH]c3ncccc23)NC(=O)[C@H](C)NC(=O)CN(CCCC(=O)O)C(=O)CSC[C@H](C(=O)O)NC(=O)[C@H](Cc2ccccc2)N(C)C(=O)[C@H](C)N(C)C(=O)[C@H](CC(C)C)NC(=O)[C@H](Cc2ccccc2)N(C)C(=O)[C@H](CCCNC(=N)N)NC(=O)[C@H](Cc2ccc(C(N)=O)cc2)NC(=O)[C@H](Cc2ccccc2)NC(=O)CN(C)C1=O` [Myostatin_99_v44] ({CH2CO}-[Gly(N(CH2)3COOH)]A[Trp(7-aza)]Y[NMeF]I[Sar]F[Phe(4-CONH2)]R[NMeF]L[NMeA][NMeF][dC]-OH; thioether N-15), the IC50 on GDF-11 came out at 810 nM; at Myostatin [1], 8.4 nM. The compound also registered a Selectivity in the assay with Myostatin [2] (Method A) of 96.

As for `CC[C@H](C)[C@@H]1NC(=O)[C@H](Cc2ccccc2)N(C)C(=O)[C@H](Cc2ccc(O)cc2)NC(=O)[C@H](Cc2c[nH]c3ncccc23)NC(=O)[C@H](C)NC(=O)CN(CCCC(=O)O)C(=O)CSC[C@H](C(=O)O)NC(=O)[C@H](Cc2ccccc2)N(C)C(=O)[C@H](C)N(C)C(=O)[C@H](CC(C)C)NC(=O)[C@H](Cc2ccccc2)N(C)C(=O)[C@H](CCCNC(=N)N)NC(=O)[C@H](Cc2cccc(C(N)=O)c2)NC(=O)[C@H](Cc2ccccc2)NC(=O)CN(C)C1=O` [Myostatin_99_v45] ({CH2CO}-[Gly(N(CH2)3COOH)]A[Trp(7-aza)]Y[NMeF]I[Sar]F[Phe(3-CONH2)]R[NMeF]L[NMeA][NMeF][dC]-OH; thioether N-15), the IC50 turned out to be 332 nM at GDF-11 and 12.8 nM on Myostatin [1]. Moreover, the Selectivity in the assay on Myostatin [2] (Method A) turned out to be 26.

In the assay with Myostatin [2] (Method D), `CCCCCCC[C@@H]1NC(=O)[C@@H]2Cc3ccc(cc3)CNC(=O)C[C@H](NC(=O)CSC[C@H](C(=O)O)NC(=O)[C@H](Cc3ccccc3)N(C)C(=O)[C@H](C)N(C)C1=O)C(=O)N[C@@H](C)C(=O)N[C@@H](Cc1c[nH]c3ccccc13)C(=O)N[C@@H](Cc1ccc(O)cc1)C(=O)N(C)[C@@H](Cc1ccccc1)C(=O)N[C@@H]([C@@H](C)CC)C(=O)N(C)[C@@H](C)C(=O)N[C@@H](Cc1cccc(OCC(=O)O)c1)C(=O)N[C@@H](Cc1ccc(C(=O)O)cc1)C(=O)N[C@@H](CCCNC(=N)N)C(=O)N2C` [Myostatin_99_v386] ({CH2CO}-DAWY[NMeF]I[NMeA][Phe(3-OCH2COOH)][Phe(4-COOH)]R[NMePhe(4-CH2NH2)][X1][NMeA][NMeF][dC]-OH; lactam 1-11 (inferred); thioether N-15 (inferred); N-terminus and C-terminus assumed) registered a Selectivity of 294.1.

With “A-R-W-Y-MeF-I-MeG-Y-Y-R-MeF-L-MeA-MeF-C (ARWY[NMeF]I[Sar]YYR[NMeF]L[NMeA][NMeF]C) [SEQ ID NO: 1]”, the “inhibitory activity against myostatin” value in the assay on Myostatin [2] (HepG2 reporter assays, statement in words) was “confirmed to have myostatin inhibitory activity”.

(Values after patent publication EP4786487A1, “PEPTIDE” (Peptidream Inc, priority 2023, dated 2025).)
